Measurements as given in DBAASP.
In brackets after ≈: the same amount, converted by molar mass. Blank lines part the entries; values can stand above or below the compound they belong to.

Assays:
Assay in all cases: ≥ marks a high value that may be exact or a test limit, other limits are often not marked, values filed in µg/mL are converted to µM
Alternaria alternata = test system: Alternaria alternata
Botrytis cinerea = test system: Botrytis cinerea
Cladosporium herbarum = test system: Cladosporium herbarum
[1] = test system: Clavibacter michiganensis subsp. michiganensis DSM 46294
[2] = test system: Pectobacterium carotovorum subsp. carotovorum DSM 30168
[3] = test system: Pseudomonas corrugata DSM 7228
[4] = test system: Pseudomonas syringae pv. syringae DSM 10604
[5] = test system: Pseudomonas syringae pv. tomato DC3000
[6] = test system: Xanthomonas vesicatoria DSM 50861
[7] = test system: Bacillus megaterium KCTC 1096
[8] = test system: Bacillus subtilis KCTC 1918
[9] = test system: Escherichia coli KCTC 1682
Proteus vulgaris = test system: Proteus vulgaris
[10] = test system: Pseudomonas aeruginosa KCTC 1637
[11] = test system: Staphylococcus aureus KCTC 1621
[12] = test system: Candida albicans TIMM 1768
[13] = test system: Saccharomyces cerevisiae KCTC 7296
[14] = test system: Salmonella typhimurium KCTC 1926
[15] = test system: Staphylococcus epidermidis KCTC 3096
[16] = test system: Trichosporon beigelii KCTC 7707
[17] = test system: Staphylococcus aureus 90857
[18] = test system: Aspergillus niger CECT 2694
[19] = test system: Fusarium oxysporum f. sp. lycopersici ATCC 201829
[20] = test system: Penicillium expansum EPS 26
[21] = test system: Rhizopus stolonifer CECT 2344
[22] = test system: Bacillus subtilis KCTC 3038
[23] = test system: Candida albicans ATCC 10231
[24] = test system: Cryptococcus neoformans ATCC 34881
[25] = test system: Enterococcus faecalis ATCC 29212
[26] = test system: Escherichia coli ATCC 27325
[27] = test system: Micrococcus luteus ATCC 10240
[28] = test system: Pseudomonas aeruginosa ATCC 27853
[29] = test system: Saccharomyces cerevisiae ATCC 44774
[30] = test system: Salmonella typhimurium KCTC 2370
[31] = test system: Staphylococcus aureus ATCC 15752
Bacillus subtilis 168 = test system: Bacillus subtilis 168
Candida albicans SC5314 = test system: Candida albicans SC5314
Candida krusei ATCC 6258 = test system: Candida krusei ATCC 6258
[32] = test system: Candida parapsilosis ATCC 22019
[33] = test system: Candida tropicalis ATCC 750
[34] = test system: Cryptococcus neoformans ATCC 208821
Escherichia coli BL21 = test system: Escherichia coli BL21
Escherichia coli ESBL = test system: Escherichia coli ESBL
Staphylococcus aureus = test system: Staphylococcus aureus

MIC (Alternaria alternata): ≥ 45.4 µM
MIC (Botrytis cinerea): ≥ 45.4 µM
MIC (Cladosporium herbarum): ≥ 45.4 µM
MIC [1]: 9.08 µM (≈ 20 µg/mL)
MIC [2]: 18.2 µM (≈ 40 µg/mL)
MIC [3]: 18.2 µM (≈ 40 µg/mL)
MIC [4]: 18.2 µM (≈ 40 µg/mL)
MIC [5]: 18.2 µM (≈ 40 µg/mL)
MIC [6]: 18.2 µM (≈ 40 µg/mL)
SMILES: CC[C@H](C)[C@H](NC(=O)[C@@H](NC(=O)CNC(=O)[C@H](C)NC(=O)[C@H](CCSC)NC(=O)[C@@H](NC(=O)CNC(=O)[C@H](Cc1ccccc1)NC(=O)[C@@H](NC(=O)[C@H](CC(C)C)NC(=O)[C@@H](NC(=O)[C@H](CC(C)C)NC(=O)[C@H](CCCCN)NC(=O)[C@H](CCCN=C(N)N)NC(=O)[C@@H](N)CCCCN)[C@@H](C)O)C(C)C)C(C)C)C(C)C)C(=O)NCC(=O)N[C@H](C(=O)N[C@@H](CCCCN)C(=O)N[C@@H](CCCCN)C(=O)N[C@@H](CCCN=C(N)N)C(N)=O)[C@@H](C)O [KRKLTLVFGVMAGVIGTKKR]

MIC [7]: 1.56 µM (≈ 3.39 µg/mL)
MIC [8]: 0.78 µM (≈ 1.69 µg/mL)
MIC [9]: 6.25 µM (≈ 13.6 µg/mL)
MIC (Proteus vulgaris): 1.56 µM (≈ 3.39 µg/mL)
MIC [10]: 6.25 µM (≈ 13.6 µg/mL)
MIC [11]: 3.12 µM (≈ 6.79 µg/mL)
SMILES: CC[C@H](C)[C@H](NC(=O)[C@H](CCCCN)NC(=O)[C@H](CCCCN)NC(=O)[C@H](Cc1ccccc1)NC(=O)[C@H](CC(C)C)NC(=O)[C@H](CCCCN)NC(=O)[C@H](Cc1c[nH]c2ccccc12)NC(=O)[C@@H](N)CCCCN)C(=O)N1CCC[C@H]1C(=O)N[C@@H](Cc1ccccc1)C(=O)N[C@@H](CC(C)C)C(=O)N[C@@H](Cc1cnc[nH]1)C(=O)N[C@@H](CC(C)C)C(=O)N[C@@H](C)C(=O)N[C@@H](CCCCN)C(=O)N[C@@H](CCCCN)C(=O)N[C@@H](Cc1ccccc1)C(N)=O [KWKLFKKIPFLHLAKKF]

MIC [8]: 12.5 µM (≈ 16.5 µg/mL)
MIC [12]: 25 µM (≈ 33 µg/mL)
MIC [10]: 6.3 µM (≈ 8.32 µg/mL)
MIC [13]: 25 µM (≈ 33 µg/mL)
MIC [14]: 0.8 µM (≈ 1.06 µg/mL)
MIC [15]: 6.3 µM (≈ 8.32 µg/mL)
MIC [16]: 6.3 µM (≈ 8.32 µg/mL)
SMILES: CC(C)C[C@H](NC(=O)[C@H](CCCCN)NC(=O)[C@H](CC(C)C)NC(=O)[C@H](CCCCN)NC(=O)[C@H](CC(C)C)NC(=O)[C@@H]1CCCN1C(=O)[C@H](CCCCN)NC(=O)[C@H](CCCCN)NC(=O)[C@H](CC(C)C)NC(=O)[C@H](CC(C)C)NC(=O)[C@@H](N)CCCCN)C(N)=O [KLLKKPLKLKL]

MIC [1]: 6.51 µM (≈ 9.99 µg/mL)
MIC [2]: 6.51 µM (≈ 9.99 µg/mL)
MIC [3]: 0.325 µM (≈ 0.5 µg/mL)
MIC [4]: 1.63 µM (≈ 2.5 µg/mL)
MIC [5]: 3.25 µM (≈ 5 µg/mL)
MIC [17]: ≥ 62.5 µM
MIC [6]: 3.25 µM (≈ 5 µg/mL)
SMILES: CC(C)C[C@H](NC(=O)[C@H](CC(C)C)NC(=O)[C@H](CCCCN)NC(=O)[C@@H](NC(=O)[C@H](CCCN=C(N)N)NC(=O)[C@H](CCCCN)NC(=O)[C@H](CCCCN)NC(=O)[C@@H](N)CCCN=C(N)N)C(C)C)C(=O)N[C@@H](CCCCN)C(=O)N[C@@H](CCCN=C(N)N)C(=O)N[C@@H](CC(C)C)C(=O)N[C@H](C(N)=O)C(C)C [RKKRVKLLKRLV]

MIC [18]: 22.4 µM (≈ 31 µg/mL)
MIC [19]: 0.849 µM (≈ 1.18 µg/mL)
MIC [20]: ≥ 100 µM
MIC [21]: ≥ 70.7 µM
SMILES: CC[C@H](C)[C@H](NC(=O)[C@H](CCCCN)NC(=O)[C@H](CCCCN)NC(=O)[C@H](Cc1ccccc1)NC(=O)[C@H](CC(C)C)NC(=O)[C@H](CCCCN)NC(=O)[C@@H](N)CCCCN)C(=O)N[C@@H](CC(C)C)C(=O)N[C@@H](CCCCN)C(=O)N[C@@H](CCCCN)C(=O)N[C@@H](CC(C)C)C(N)=O [KKLFKKILKKL]

MIC [22]: ≥ 37.5 µM
MIC [23]: > 37.5 µM
MIC [24]: ≥ 37.5 µM
MIC [25]: > 37.5 µM
MIC [26]: ≥ 37.5 µM
MIC [27]: ≥ 37.5 µM
MIC [28]: > 37.5 µM
MIC [29]: ≥ 37.5 µM
MIC [30]: ≥ 37.5 µM
MIC [31]: ≥ 37.5 µM
SMILES: CC(C)[C@H](NC(=O)CNC(=O)[C@H](CCC(N)=O)NC(=O)[C@@H](NC(=O)[C@@H](NC(=O)[C@@H]1CCCN1C(=O)[C@H](CCCN=C(N)N)NC(=O)[C@@H](NC(=O)CNC(=O)[C@@H](N)CCCN=C(N)N)C(C)C)C(C)C)C(C)C)C(=O)N[C@@H](CCCCN)C(=O)N[C@@H](CCC(=O)O)C(=O)N[C@@H](CCCCN)C(=O)N[C@H](C(=O)N[C@@H](CCCN=C(N)N)C(=O)O)C(C)C [RGVRPVVQGVKEKVR]

MIC (Bacillus subtilis 168): 5 µM (≈ 7.33 µg/mL)
MIC (Candida albicans SC5314): ≥ 800 µM
MIC (Candida krusei ATCC 6258): ≥ 100 µM
MIC [32]: ≥ 1600 µM
MIC [33]: ≥ 100 µM
MIC [34]: 25 µM (≈ 36.6 µg/mL)
MIC (Escherichia coli BL21): 30 µM (≈ 44 µg/mL)
MIC (Escherichia coli ESBL): 20 µM (≈ 29.3 µg/mL)
MIC (Staphylococcus aureus): 30 µM (≈ 44 µg/mL)
SMILES: CC[C@H](C)[C@H](N)C(=O)N[C@H](C(=O)N[C@@H](CCCCN)C(=O)N[C@@H](CCCCN)C(=O)N[C@H](C(=O)N[C@H](C(=O)N[C@@H](CCCCN)C(=O)N[C@@H](CCCCN)C(=O)N[C@H](C(=O)N[C@H](C(=O)N[C@@H](CCCCN)C(=O)N[C@@H](CCCCN)C(N)=O)[C@@H](C)CC)[C@@H](C)CC)[C@@H](C)CC)[C@@H](C)CC)[C@@H](C)CC [IIKKIIKKIIKK]

MIC (Alternaria alternata): ≥ 65.7 µM
MIC (Botrytis cinerea): ≥ 65.7 µM
MIC (Cladosporium herbarum): 26.3 µM (≈ 40 µg/mL)
MIC [1]: 6.57 µM (≈ 9.99 µg/mL)
MIC [2]: 26.3 µM (≈ 40 µg/mL)
MIC [3]: 26.3 µM (≈ 40 µg/mL)
MIC [4]: 6.57 µM (≈ 9.99 µg/mL)
MIC [5]: 6.57 µM (≈ 9.99 µg/mL)
MIC [17]: 1.5 µM (≈ 2.28 µg/mL)
MIC [6]: 3.29 µM (≈ 5 µg/mL)
SMILES: CC(C)C[C@H](NC(=O)[C@H](CC(C)C)NC(=O)[C@H](CCCCN)NC(=O)[C@H](CCCCN)NC(=O)[C@H](CC(C)C)NC(=O)[C@H](CC(C)C)NC(=O)[C@H](CCCCN)NC(=O)[C@H](CCCCN)NC(=O)[C@H](CC(C)C)NC(=O)[C@H](C)NC(=O)[C@H](CCCCN)NC(=O)[C@H](CC(C)C)NC(=O)[C@@H](N)CC(C)C)C(N)=O [LLKALKKLLKKLL]
